These results are taken from patent publication US8618137B2 (priority 2008, dated 2013).

Where two headings read alike, the source gives them in different places. Marks after values point to notes of the source that are not given here.

Holding throughout (format): in vivo
Assay [1] relates to Phytophthora infestans (the causal agent of tomato late blight). As to conditions: sprayed 17 h after inoculation, 100 = 100% disease control, 0 = no control.
In assay [2] the test system is Plasmopara viticola (the causal agent of grape downy mildew). The assay is described as follows: Test A: grape downy mildew, grape seedlings inoculated then sprayed with test suspension, visual disease rating. The following applies: 100 = 100% disease control, 0 = no control relative to controls. The text has this: General protocol for preparing test suspensions for Tests A-B2: The test compounds were first dissolved in acetone in an amount equal to 3% of the final volume and then suspended at the desired concentration (in ppm) in acetone and purified water (50/50 mix by volume) containing 250 ppm of the surfactant Trem® 014 (polyhydric alcohol esters). The resulting test suspensions were then used in Tests A-B2. Spraying a 200 ppm test suspension to the point of run-off on the test plants was the equivalent of a rate of 800 g/ha.
Grape seedlings were inoculated with a spore suspension of Plasmopara viticola (the causal agent of grape downy mildew) and incubated in a saturated atmosphere at 20° C. for 24 h. After a short drying period, the grape seedlings were sprayed with the test suspension to the point of run-off, then moved to a growth chamber at 20° C. for 5 days, and then back into a saturated atmosphere at 20° C. for 24 h. Upon removal, visual disease ratings were made.
Results for Tests A-B2 are given in Table A. In the Table, a rating of 100 indicates 100% disease control and a rating of 0 indicates no disease control (relative to the controls). All results are for 10 ppm except where followed by an “*” which indicates 40 ppm and “**” which indicates 200 ppm.

Assay [3] deals with Phytophthora infestans (the causal agent of tomato late blight). The following applies: sprayed the day before inoculation, 100 = 100% disease control, 0 = no control.

For `CN(CC(=O)N1CCC(c2nc(C3=NOC(c4c(F)cccc4F)C3)cs2)CC1)NC(=O)C(F)(F)F` (stereo not drawn) [Compound 36, 2,2,2-trifluoroacetic acid 2-[2-[4-[5-(2,6-difluorophenyl)-4,5-dihydro-3-isoxazolyl]-2-thiazolyl-1-piperidinyl]-2-oxoethyl]-2-methylhydrazide], in assay [1] (test suspension 200 ppm (**)), the “Test B2 rating (disease control)” value is 93** %. Besides, the “Test A rating (disease control)” value in assay [2] (test suspension 200 ppm (**)) is given as 60** %. Also, the “Test B1 rating (disease control)” value in assay [3] (test suspension 200 ppm (**)) is 100** %.

On to `O=C(CONC(=O)C(F)(F)F)N1CCC(c2nc(C3=NOC(c4c(F)cccc4F)C3)cs2)CC1` (stereo not drawn) [Compound 38], for which the “Test B2 rating (disease control)” value is reported as 90% in assay [1] (test suspension 10 ppm) and 99* % in assay [1] (test suspension 40 ppm (*)). Further, the figures for the “Test A rating (disease control)” value in assay [2] (test suspension 10 ppm) and in assay [2] (test suspension 40 ppm (*)) were 98% and 99* %, respectively. Moreover, the “Test B1 rating (disease control)” value is on record as 90% in assay [3] (test suspension 10 ppm) and 100* % in assay [3] (test suspension 40 ppm (*)).

For `CC1=NN(CC(=O)N2CCC(c3nc(C4=NOC(c5c(F)cccc5F)C4)cs3)CC2)C(C)C1` (stereo not drawn) [Compound 40, 1-[4-[4-[5-(2,6-difluorophenyl)-4,5-dihydro-3-isoxazolyl]-2-thiazolyl]-1-piperidinyl]-2-(4,5-dihydro-3,5-dimethyl-1H-pyrazol-1-yl]ethanone], the “Test B2 rating (disease control)” value in assay [1] (test suspension 40 ppm (*)) is recorded as 99* %. The “Test A rating (disease control)” value in assay [2] (test suspension 40 ppm (*)) was 97* %. Also, the “Test B1 rating (disease control)” value in assay [3] (test suspension 40 ppm (*)) was 100* %.

As to `CC(C)=NOCC(=O)N1CCC(c2nc(C3=NOC4(CCc5ccccc54)C3)cs2)CC1` (stereo not drawn) [compound 13], the “Test B2 rating (disease control)” value in assay [1] (test suspension 10 ppm) was found to be 99%. In addition, the “Test A rating (disease control)” value in assay [2] (test suspension 10 ppm) is listed as 99%. Further, in assay [3] (test suspension 10 ppm), the “Test B1 rating (disease control)” value came to 99%.

With `CC(C)=NOCC(=O)N1CCC(c2nc(C(=O)N(C)[C@H](C)c3ccccc3)cs2)CC1` [compound 15], the “Test B2 rating (disease control)” value in assay [1] (test suspension 40 ppm (*)) was 91* %. In assay [2] (test suspension 40 ppm (*)), the “Test A rating (disease control)” value is given as 99* %. Moreover, the “Test B1 rating (disease control)” value in assay [3] (test suspension 40 ppm (*)) is listed as 39* %.

In the case of `O=C(CON=CC(F)(F)F)N1CCC(c2nc(C3=NOC4(CCc5ccccc54)C3)cs2)CC1` (stereo not drawn) [compound 29], in assay [1] (test suspension 10 ppm), the “Test B2 rating (disease control)” value is given as 99%. Besides, the “Test A rating (disease control)” value in assay [2] (test suspension 10 ppm) was 100%. Besides, in assay [3] (test suspension 10 ppm), the “Test B1 rating (disease control)” value is reported as 100%.

Regarding `CC(C)=NOCC(=O)N1CCC(c2nc(C3=NOC(c4ccccc4C#N)C3)cs2)CC1` (stereo not drawn) [compound 41], the “Test B2 rating (disease control)” value in assay [1] (test suspension 10 ppm) worked out at 99%. In assay [2] (test suspension 10 ppm), the “Test A rating (disease control)” value was 100%. Also, in assay [3] (test suspension 10 ppm), the “Test B1 rating (disease control)” value turned out to be 100%.

In the case of `CC(=NOCC(=O)N1CCC(c2nc(C3=NOC(c4ccccc4C#N)C3)cs2)CC1)C(F)(F)F` (stereo not drawn) [compound 42], the “Test B2 rating (disease control)” value in assay [1] (test suspension 10 ppm) amounted to 99%. For the same compound, in assay [2] (test suspension 10 ppm), the “Test A rating (disease control)” value is on record as 100%. For the same compound, the “Test B1 rating (disease control)” value in assay [3] (test suspension 10 ppm) worked out at 100%.

On to `CC(=NOCC(=O)N1CCC(c2nc(C3=NOC(n4c(=O)oc5ccccc54)C3)cs2)CC1)C(F)(F)F` (stereo not drawn) [compound 43], for which the “Test B2 rating (disease control)” value in assay [1] (test suspension 10 ppm) was 99%. For the same compound, the “Test A rating (disease control)” value in assay [2] (test suspension 10 ppm) is given as 100%. Besides, the “Test B1 rating (disease control)” value in assay [3] (test suspension 10 ppm) stood at 100%.

On to `CC(=NOCC(=O)N1CCC(c2nc(C3=NOC(N4C(=O)c5ccccc5C4=O)C3)cs2)CC1)C(F)(F)F` (stereo not drawn) [compound 44], for which, in assay [1] (test suspension 10 ppm), the “Test B2 rating (disease control)” value was 99%. The “Test A rating (disease control)” value in assay [2] (test suspension 10 ppm) is given as 100%. Further, in assay [3] (test suspension 10 ppm), the “Test B1 rating (disease control)” value amounted to 100%.

As to `CC(C)=NOCC(=O)N1CCC(c2nc(C3=NOC(N4C(=O)c5ccccc5C4=O)C3)cs2)CC1` (stereo not drawn) [compound 45], the “Test B2 rating (disease control)” value in assay [1] (test suspension 10 ppm) came to 99%. Further, the “Test A rating (disease control)” value in assay [2] (test suspension 10 ppm) was 96%. The “Test B1 rating (disease control)” value in assay [3] (test suspension 10 ppm) was 95%.

`CC1=NN(CC(=O)N2CCC(c3nc(C4=NOC(c5c(F)cccc5F)C4)cs3)CC2)C(C)(C)C1` (stereo not drawn) [compound 46]: in assay [1] (test suspension 40 ppm (*)), the “Test B2 rating (disease control)” value is recorded as 81* %. For the same compound, the “Test A rating (disease control)” value in assay [2] (test suspension 40 ppm (*)) is listed as 9* %. Moreover, the “Test B1 rating (disease control)” value in assay [3] (test suspension 40 ppm (*)) is 90* %.

Regarding `CN1C(=O)c2ccccc2C12CC(c1csc(C3CCN(C(=O)CON=CC(F)(F)F)CC3)n1)=NO2` (stereo not drawn) [compound 47], the “Test B2 rating (disease control)” value in assay [1] (test suspension 10 ppm) worked out at 99%. For the same compound, the “Test A rating (disease control)” value in assay [2] (test suspension 10 ppm) was found to be 100%. Also, the “Test B1 rating (disease control)” value in assay [3] (test suspension 10 ppm) was found to be 100%.

In the case of `Cn1c(=O)n(C2CC(c3csc(C4CCN(C(=O)CON=CC(F)(F)F)CC4)n3)=NO2)c2ccccc21` (stereo not drawn) [compound 48], the “Test B2 rating (disease control)” value in assay [1] (test suspension 10 ppm) was 99%. Moreover, the “Test A rating (disease control)” value in assay [2] (test suspension 10 ppm) worked out at 100%. The “Test B1 rating (disease control)” value in assay [3] (test suspension 10 ppm) came to 100%.

Take `CC(=NOCC(=O)N1CCC(c2nc(C3=NOC(n4c(=O)n(C)c5ccccc54)C3)cs2)CC1)C(F)(F)F` (stereo not drawn) [compound 49]: the “Test B2 rating (disease control)” value in assay [1] (test suspension 10 ppm) is listed as 99%. Also, the “Test A rating (disease control)” value in assay [2] (test suspension 10 ppm) was found to be 100%. For the same compound, in assay [3] (test suspension 10 ppm), the “Test B1 rating (disease control)” value worked out at 100%.

Regarding `CC(=NOCC(=O)N1CCC(c2nc(C3=NOC4(C3)c3ccccc3C(=O)N4C)cs2)CC1)C(F)(F)F` (stereo not drawn) [compound 50], the “Test B2 rating (disease control)” value in assay [1] (test suspension 10 ppm) came out at 99%. Also, the “Test A rating (disease control)” value in assay [2] (test suspension 10 ppm) is recorded as 100%. The “Test B1 rating (disease control)” value in assay [3] (test suspension 10 ppm) was 100%.

For `N#CC(C#N)=NOCC(=O)N1CCC(c2nc(C3=NOC(c4c(F)cccc4F)C3)cs2)CC1` (stereo not drawn) [compound 51], in assay [1] (test suspension 10 ppm), the “Test B2 rating (disease control)” value was determined as 99%. The “Test A rating (disease control)” value in assay [2] (test suspension 10 ppm) came to 99%. Moreover, the “Test B1 rating (disease control)” value in assay [3] (test suspension 10 ppm) is given as 100%.
